From patent publication US20250205200A1, “5-METHOXY-N,N-[…][…] THE TREATMENT OF […]” (GH RESEARCH IRELAND LIMITED, priority 2022, published 2025)

Tested on: patients with postpartum depression (PPD)
Assay: Clinical trial of inhaled 5-MeO-DMT (individualized dosing regimen) in postpartum depression; one patient, 6 mg then 12 mg
Details: n=1; for BPRS Blunted affect improvement / BPRS Blunted affect score / BPRS Conceptual disorganization improvement / BPRS Conceptual disorganization score / BPRS Disorientation improvement / BPRS Disorientation score / BPRS Grandiosity improvement / BPRS Grandiosity score / BPRS Hallucinatory behaviour improvement / BPRS Hallucinatory behaviour score / BPRS Hostility improvement / BPRS Hostility score / BPRS Mannerisms and Posturing improvement / BPRS Mannerisms and Posturing score / BPRS Motor retardation improvement / BPRS Motor retardation score / BPRS Suspiciousness improvement / BPRS Suspiciousness score / BPRS Uncooperativeness improvement / BPRS Uncooperativeness score / BPRS Unusual Thought Content improvement / BPRS Unusual Thought Content score: baseline 1; for BPRS Excitement improvement / BPRS Excitement score: baseline 2; for BPRS Anxiety improvement / BPRS Anxiety score: baseline 7
Procedure: The single-arm, open-label clinical trial will involve 15 adult female patients with clinically diagnosed postpartum depression (PPD).
The second dose (12 mg) will only be administered if: • a. […] The 6 mg dose was safe and well-tolerated according to the investigator, • c. Any psychoactive effects (PsE) of the prior dose have subsided, and • d. Pre-dose vital parameters and forced expiratory volume in one second (FEV1) are in normal range, or if outside of the normal range, are not clinically significant according to the investigator. • 3. Similarly, a third dose (18 mg) will only be administered if: • a. […] The 12 mg dose was safe and well-tolerated according to the investigator, and • c. Any PsE of the prior dose have subsided, and • d. Pre-dose vital parameters and forced expiratory volume in one second (FEV1) are in normal range, or if outside of the normal range, are not clinically significant according to the investigator.
The patients will be assessed for a peak psychedelic experience (based on a patient-scored visual analogue scale, the PE scale), sedation, and other endpoints after dosing.
Follow-up visits are planned for Day 1, and Day 7 after the dosing day.
The following criteria must be met by all patients considered for clinical trial participation: • 1. Is female and in the age range between 18 and 45 years (inclusive) at screening. • 2. Has a body mass index (BMI) in the range of 18.5 and 35 kg/m^2 (inclusive) at screening. • 3. Meets the trial criteria for PPD as assessed by a trial psychiatrist or registered psychologist: • a. Diagnosis of Major Depressive Disorder without psychotic features, confirmed by the Mini-International Neuropsychiatric Interview (MINI), with peri-partum onset that began no earlier than gestation and no later than the first 4 weeks postpartum. • b. Has a Montgomery-Åsberg Depression Rating Scale (MADRS) total score of equal to or greater than 28 at screening and pre-dose on Day 0. • 6. […] Patients must have a negative pregnancy test at screening and on the pre-test day (Day −1). • 5. Is willing to delay start of other antidepressant or anxiety medication until after the end of the trial at Day 7 and agrees to keep any psychotherapy unchanged during the trial.
A potential patient who meets any of the following key exclusion criteria will be excluded from participation in this trial: • 1. Has, based on history, psychiatric assessment, and evaluation of the MINI, a current or prior diagnosis of bipolar disorder, a manic or hypomanic episode, a psychotic disorder, Major Depressive Disorder (MDD) or other mood disorder with psychotic features, obsessive compulsive disorder, post-traumatic stress disorder (PTSD), autism spectrum disorder, borderline personality disorder, schizophrenia, delusional disorder, paranoid personality disorder, schizoaffective disorder, clinically significant intellectual disability, or any other psychiatric comorbidity that renders the patient unsuitable for the trial according to the investigator's judgment. • 2. Has one or more first or second degree relatives with a current or previously diagnosed bipolar disorder, psychotic disorder or other mood disorder (including MDD) with psychotic features. • 3. Is in the judgement of a trial psychiatrist or registered psychologist, at significant risk for suicide based on history, psychiatric assessment, and evaluation of suicidal ideation and suicidal behaviour based on the Columbia-Suicide Severity Rating Scale (C-SSRS). • 4. Has taken anti-depressive medication within 14 days or 5 half-lives (whichever is longer) prior to dosing (exception: within the last 5 weeks in the case of fluoxetine). • 5.

COc1ccc2[nH]cc(CCN(C)C)c2c1 [5-MeO-DMT]
MADRS Suicidal Thoughts improvement (Day 7, baseline 0): 0
MADRS Suicidal Thoughts score (Day 7, baseline 0): 0
BPRS Blunted affect improvement (Day 7): 0
BPRS Blunted affect score (Day 7): 1
BPRS Conceptual disorganization improvement (Day 7): 0
BPRS Conceptual disorganization score (Day 7): 1
BPRS Disorientation improvement (Day 7): 0
BPRS Disorientation score (Day 7): 1
BPRS Grandiosity improvement (Day 7): 0
BPRS Grandiosity score (Day 7): 1
BPRS Hallucinatory behaviour improvement (Day 7): 0
BPRS Hallucinatory behaviour score (Day 7): 1
BPRS Hostility improvement (Day 7): 0
BPRS Hostility score (Day 7): 1
BPRS Mannerisms and Posturing improvement (Day 7): 0
BPRS Mannerisms and Posturing score (Day 7): 1
BPRS Motor retardation improvement (Day 7): 0
BPRS Motor retardation score (Day 7): 1
BPRS Suspiciousness improvement (Day 7): 0
BPRS Suspiciousness score (Day 7): 1
BPRS Uncooperativeness improvement (Day 7): 0
BPRS Uncooperativeness score (Day 7): 1
BPRS Unusual Thought Content improvement (Day 7): 0
BPRS Unusual Thought Content score (Day 7): 1
BPRS Excitement improvement (Day 7): 1
BPRS Excitement score (Day 7): 1
MADRS Inability to Feel improvement (Day 7, baseline 3): 3
MADRS Inability to Feel score (Day 7, baseline 3): 0
MADRS Lassitude improvement (Day 7, baseline 3): 3
MADRS Lassitude score (Day 7, baseline 3): 0
MADRS Pessimistic Thoughts improvement (Day 7, baseline 4): 4
MADRS Pessimistic Thoughts score (Day 7, baseline 4): 0
MADRS Reported sadness improvement (Day 7, baseline 4): 4
MADRS Reported sadness score (Day 7, baseline 4): 0
BPRS Emotional withdrawal improvement (Day 7, baseline 5): 4
BPRS Emotional withdrawal score (Day 7, baseline 5): 1
MADRS Apparent sadness improvement (Day 7, baseline 5): 5
MADRS Apparent sadness score (Day 7, baseline 5): 0
MADRS Inner Tension improvement (Day 7, baseline 5): 4
MADRS Inner Tension score (Day 7, baseline 5): 1
MADRS Reduced Sleep improvement (Day 7, baseline 5): 5
MADRS Reduced Sleep score (Day 7, baseline 5): 0
BPRS Depressive Mood improvement (Day 7, baseline 6): 5
BPRS Depressive Mood score (Day 7, baseline 6): 1
BPRS Guilt feelings improvement (Day 7, baseline 6): 5
BPRS Guilt feelings score (Day 7, baseline 6): 1
BPRS Somatic Concern improvement (Day 7, baseline 6): 5
BPRS Somatic Concern score (Day 7, baseline 6): 1
BPRS Tension improvement (Day 7, baseline 6): 5
BPRS Tension score (Day 7, baseline 6): 1
BPRS Anxiety improvement (Day 7): 6
BPRS Anxiety score (Day 7): 1
BIMF functional domain Adjustment % improvement (Day 7 vs Day 0): 20.00%
BIMF functional domain Adjustment Δ (Day 7 vs Day 0): 1
BIMF functional domain Infant Care % improvement (Day 7 vs Day 0): 0.00%
BIMF functional domain Infant Care Δ (Day 7 vs Day 0): 0
BIMF functional domain Management % improvement (Day 7 vs Day 0): 18%
BIMF functional domain Management Δ (Day 7 vs Day 0): 5
BIMF functional domain Mother-Child Interaction Δ (Day 7 vs Day 0): 2
BIMF functional domain Psychological Well-being Δ (Day 7 vs Day 0): 9
BIMF functional domain Self-Care % improvement (Day 7 vs Day 0): 44%
BIMF functional domain Self-Care Δ (Day 7 vs Day 0): 4
BIMF functional domain Social Support Δ (Day 7 vs Day 0): 1
BIMF item 10 (I trust my own feelings (instincts) when taking care of my baby) Δ (Day 7 vs Day 0): 1
BIMF item 11 (I take a little time each week to do something for myself) Δ (Day 7 vs Day 0): 1
BIMF item 16 (I worry about how other people judge me (as a mother)) Δ (Day 7 vs Day 0): 2
BIMF total score percentage improvement (Day 7 vs Day 0 (92 to 105)): 14%
BPRS Blunted affect improvement (Discharge): 0
BPRS Blunted affect score (Discharge): 1
BPRS Conceptual disorganization improvement (Discharge): 0
BPRS Conceptual disorganization score (Discharge): 1
BPRS Disorientation improvement (Discharge): 0
BPRS Disorientation score (Discharge): 1
BPRS Grandiosity improvement (Discharge): 0
BPRS Grandiosity score (Discharge): 1
BPRS Hallucinatory behaviour improvement (Discharge): 0
BPRS Hallucinatory behaviour score (Discharge): 1
BPRS Hostility improvement (Discharge): 0
BPRS Hostility score (Discharge): 1
BPRS Mannerisms and Posturing improvement (Discharge): 0
BPRS Mannerisms and Posturing score (Discharge): 1
BPRS Motor retardation improvement (Discharge): 0
BPRS Motor retardation score (Discharge): 1
BPRS Suspiciousness improvement (Discharge): 0
BPRS Suspiciousness score (Discharge): 1
BPRS Uncooperativeness improvement (Discharge): 0
BPRS Uncooperativeness score (Discharge): 1
BPRS Unusual Thought Content improvement (Discharge): 0
BPRS Unusual Thought Content score (Discharge): 1
BPRS Excitement improvement (Discharge): 1
BPRS Excitement score (Discharge): 1
BPRS Emotional withdrawal improvement (Discharge, baseline 5): 4
BPRS Emotional withdrawal score (Discharge, baseline 5): 1
BPRS Depressive Mood improvement (Discharge, baseline 6): 5
BPRS Depressive Mood score (Discharge, baseline 6): 1
BPRS Guilt feelings improvement (Discharge, baseline 6): 5
BPRS Guilt feelings score (Discharge, baseline 6): 1
BPRS Somatic Concern improvement (Discharge, baseline 6): 5
BPRS Somatic Concern score (Discharge, baseline 6): 1
BPRS Tension score (Discharge, baseline 6): 1
BPRS Anxiety improvement (Discharge): 6
BPRS Anxiety score (Discharge): 1
Changes in vital parameters (shortly after administration): temporary, clinically non-relevant increase in heart rate and blood pressure
